Consider 13 compounds from publication PMC9613624 (Journal of medicinal chemistry, 2022).

One assay relates to P-PRAS40. The experiment in a line: Western blotting of P-PRAS40 in SW620 cells. The settings on record: 1 μM. In general terms: Immunoblotting shows a protein as a band on a membrane.
Assay [1] deals with AKT. Nature of the assay: Western blotting of total AKT. Type of assay: cell-based. The settings on record: PC3 cells, 1 μM, 24 h.
The test system of assay [2] is P-AKT (S473), P-PRAS40 (T246), P-S6 (S240/244). The experiment in a line: Western blotting of downstream signaling in PC3 cells. To be noted: 1 μM, 24 h. In kind it is cell-based.
Assay [3] concerns AKT. The experiment in a line: Western blotting of T-AKT in SW620 cells. In kind it is cell-based. The settings on record: SW620 cells.
The subject of assay [4] is AKT. Nature of the assay: Western blotting of T-AKT in PANC-1 cells. Type of assay: cell-based. The settings on record: PANC-1 cells (KRAS mutant), 1 μM, 24 h.
In a further assay the test system is SW620 cells. Nature of the assay: Colony formation assay in SW620 cells. Type of assay: cell-based. To be noted: 2 weeks, crystal violet.

Entries after “also recorded” stand apart in the source; their conditions may differ.

Take `Nc1ncccc1-c1nc2ccc(-c3ccccc3)nc2n1-c1ccc(C2(N)CCC2)cc1` [ARQ-092, 3-(3-(4-(1-Aminocyclobutyl)phenyl)-5-phenyl-3H-imidazo[4,5-b]pyridin-2-yl)pyridin −2-amine, reference compound]: the “phosphorylation of PRAS40 in time-course study (in words)” value in the assay on P-PRAS40 (up to 24 h) was “potently inhibited”.
Regarding `Cc1ncsc1-c1ccc(CNC(=O)[C@@H]2C[C@@H](O)CN2C(=O)[C@@H](NC(=O)CNC(=O)CCc2cccc(-c3ccc4nc(-c5cccnc5N)n(-c5ccc(C6(N)CCC6)cc5)c4n3)c2)C(C)(C)C)cc1` [Compound 11, (2S,4R)-1-((S)-2-(2-(3-(3-(3-(4-(1-Aminocyclobutyl)phenyl)-2-(2-aminopyridin-3-yl)-3H-imidazo[4,5-b]pyridin-5-yl)phenyl)propanamido)acetamido)-3,3-dimethylbutanoyl)-4-hydroxy-N-(4-(4-methylthiazol-5-yl)benzyl)pyrrolidine-2-carboxamide], in the assay with AKT [1], the “T-AKT protein level / AKT degradation (western blot, in words)” value (shortened to “T-AKT protein level / AKT degradation”) is “completely inactive”.
On the same count and under the same terms, then `Cc1ncsc1-c1ccc(CNC(=O)[C@@H]2C[C@@H](O)CN2C(=O)[C@@H](NC(=O)CCNC(=O)CCc2cccc(-c3ccc4nc(-c5cccnc5N)n(-c5ccc(C6(N)CCC6)cc5)c4n3)c2)C(C)(C)C)cc1` [Compound 12, (2S,4R)-1-((S)-2-(3-(3-(3-(3-(4-(1-Aminocyclobutyl)phenyl)-2-(2-aminopyridin-3-yl)-3H-imidazo[4,5-b]pyridin-5-yl)phenyl)propanamido)propanamido)-3,3-dimethylbutanoyl)-4-hydroxy-N-(4-(4-methylthiazol-5-yl)benzyl)pyrrolidine-2-carboxamide], with “completely inactive”.
As to `Cc1ncsc1-c1ccc(CNC(=O)[C@@H]2C[C@@H](O)CN2C(=O)[C@@H](NC(=O)CCCCCCCCCCNC(=O)CCc2cccc(-c3ccc4nc(-c5cccnc5N)n(-c5ccc(C6(N)CCC6)cc5)c4n3)c2)C(C)(C)C)cc1` [Compound 20, (2S,4R)-1-((S)-2-(11-(3-(3-(3-(4-(1-Aminocyclobutyl)phenyl)-2-(2-aminopyridin-3-yl)-3H-imidazo[4,5-b]pyridin-5-yl)phenyl)propanamido)undecanamido)-3,3-dimethylbutanoyl)-4-hydroxy-N-(4-(4-methylthiazol-5-yl)benzyl)pyrrolidine-2-carboxamide], the “T-AKT protein level / AKT degradation” value with AKT [1] was “highly effective AKT degraders”.
Turning to `Cc1ncsc1-c1ccc(CNC(=O)[C@@H]2C[C@@H](O)CN2C(=O)[C@@H](NC(=O)COCC(=O)NCCc2cccc(-c3ccc4nc(-c5cccnc5N)n(-c5ccc(C6(N)CCC6)cc5)c4n3)c2)C(C)(C)C)cc1` [Compound 33, (2S,4R)-1-((S)-2-(2-(2-((3-(3-(4-(1-Aminocyclobutyl)phenyl)-2-(2-aminopyridin-3-yl)-3H-imidazo[4,5-b]pyridin-5-yl)phenethyl)amino)-2-oxoethoxy)acetamido)-3,3-dimethylbutanoyl)-4-hydroxy-N-(4-(4-methylthiazol-5-yl)benzyl)pyrrolidine-2-carboxamide], the “T-AKT protein level / AKT degradation” value with AKT [1] is given as “effectively induced T-AKT degradation”.
Consider `Cc1ncsc1-c1ccc(CNC(=O)[C@@H]2C[C@@H](O)CN2C(=O)[C@@H](NC(=O)CCOCCC(=O)NCCc2cccc(-c3ccc4nc(-c5cccnc5N)n(-c5ccc(C6(N)CCC6)cc5)c4n3)c2)C(C)(C)C)cc1` [Compound 34, (2S,4R)-1-((S)-2-(3-(3-((3-(3-(4-(1-Aminocyclobutyl)phenyl)-2-(2-aminopyridin-3-yl)-3H-imidazo[4,5-b]pyridin-5-yl)phenethyl)amino)-3-oxopropoxy)propanamido)-3,3-dimethylbutanoyl)-4-hydroxy-N-(4-(4-methylthiazol-5-yl)benzyl)pyrrolidine-2-carboxamide], for which the “T-AKT protein level / AKT degradation” value with AKT [1] is given as “effectively induced T-AKT degradation”.
In the case of `Cc1ncsc1-c1ccc(CNC(=O)[C@@H]2C[C@@H](O)CN2C(=O)[C@@H](NC(=O)COCCOCCOCCOCCOCC(=O)NCCc2cccc(-c3ccc4nc(-c5cccnc5N)n(-c5ccc(C6(N)CCC6)cc5)c4n3)c2)C(C)(C)C)cc1` [Compound 40, N^1-(3-(3-(4-(1-Aminocyclobutyl)phenyl)-2-(2-aminopyridin-3-yl)-3H-imidazo[4,5-b]pyridin-5-yl)phenethyl)-N^17-((S)-1-((2S,4R)-4-hydroxy-2-((4-(4-methylthiazol-5-yl)benzyl)carbamoyl)pyrrolidin-1-yl)-3,3-dimethyl-1-oxobutan-2-yl)-3,6,9,12,15-pentaoxaheptadecanediamide], in the assay on AKT [1], the “T-AKT protein level / AKT degradation” value is “restored effective AKT degradation activity”.
As for `Cc1ncsc1-c1ccc(CNC(=O)[C@@H]2C[C@@H](O)CN2C(=O)[C@@H](NC(=O)CCOCCOCCOCCOCCOCCC(=O)NCCc2cccc(-c3ccc4nc(-c5cccnc5N)n(-c5ccc(C6(N)CCC6)cc5)c4n3)c2)C(C)(C)C)cc1` [Compound 41, N^1-(3-(3-(4-(1-Aminocyclobutyl)phenyl)-2-(2-aminopyridin-3-yl)-3H-imidazo[4,5-b]pyridin-5-yl)phenethyl)-N^19-((S)-1-((2S,4R)-4-hydroxy-2-((4-(4-methylthiazol-5-yl)benzyl)carbamoyl)pyrrolidin-1-yl)-3,3-dimethyl-1-oxobutan-2-yl)-4,7,10,13,16-pentaoxanonadecanediamide], the “T-AKT protein level / AKT degradation” value in the assay with AKT [1] is “restored effective AKT degradation activity”.
As to `Cc1ncsc1-c1ccc(CNC(=O)[C@@H]2C[C@@H](O)CN2C(=O)[C@@H](NC(=O)CCCCCCCC(=O)NCCc2cccc(-c3ccc4nc(-c5cccnc5N)n(-c5ccc(C6(N)CCC6)cc5)c4n3)c2)C(C)(C)C)cc1` [Compound 47, N^1-(3-(3-(4-(1-Aminocyclobutyl)phenyl)-2-(2-aminopyridin-3-yl)-3H-imidazo[4,5-b]pyridin-5-yl)phenethyl)-N^9-((S)-1-((2S,4R)-4-hydroxy-2-((4-(4-methylthiazol-5-yl)benzyl)carbamoyl)pyrrolidin-1-yl)-3,3-dimethyl-1-oxobutan-2-yl)nonanediamide], in the assay with AKT [1], the “T-AKT protein level / AKT degradation” value is “particularly effective in T-AKT degradation”. Moreover, the “downstream signaling inhibition (P-AKT, P-PRAS40, P-S6; western blot, in words)” value in assay [2] is given as “particularly effective”.
With `Cc1ncsc1-c1ccc(CNC(=O)[C@@H]2C[C@@H](O)CN2C(=O)[C@@H](NC(=O)CCCCCCCCC(=O)NCCc2cccc(-c3ccc4nc(-c5cccnc5N)n(-c5ccc(C6(N)CCC6)cc5)c4n3)c2)C(C)(C)C)cc1` [Compound 48, N^1-(3-(3-(4-(1-Aminocyclobutyl)phenyl)-2-(2-aminopyridin-3-yl)-3H-imidazo[4,5-b]pyridin-5-yl)phenethyl)-N^10-((S)-1-((2S,4R)-4-hydroxy-2-((4-(4-methylthiazol-5-yl)benzyl)carbamoyl)pyrrolidin-1-yl)-3,3-dimethyl-1-oxobutan-2-yl)decanediamide], in the assay with AKT [1], the “T-AKT protein level / AKT degradation” value is “particularly effective in T-AKT degradation; also recorded: highly effective AKT degraders”. In assay [2], the “downstream signaling inhibition (P-AKT, P-PRAS40, P-S6; western blot, in words)” value was “particularly effective”.
On to `Cc1ncsc1-c1ccc(CNC(=O)[C@@H]2C[C@@H](O)CN2C(=O)[C@@H](NC(=O)CCCCCCCCCC(=O)NCCc2cccc(-c3ccc4nc(-c5cccnc5N)n(-c5ccc(C6(N)CCC6)cc5)c4n3)c2)C(C)(C)C)cc1` [Compound 49, N^1-(3-(3-(4-(1-Aminocyclobutyl)phenyl)-2-(2-aminopyridin-3-yl)-3H-imidazo[4,5-b]pyridin-5-yl)phenethyl)-N^11-((S)-1-((2S,4R)-4-hydroxy-2-((4-(4-methylthiazol-5-yl)benzyl)carbamoyl)pyrrolidin-1-yl)-3,3-dimethyl-1-oxobutan-2-yl)undecanediamide], for which the “T-AKT protein level / AKT degradation” value with AKT [1] is on record as “particularly effective in T-AKT degradation; also recorded: highly effective AKT degraders”. Further, the “downstream signaling inhibition (P-AKT, P-PRAS40, P-S6; western blot, in words)” value in assay [2] was “particularly effective”.
`Cc1ncsc1-c1ccc([C@H](C)NC(=O)[C@H]2C[C@H](O)CN2C(=O)[C@@H](NC(=O)CCCCCCCCCCNC(=O)CCc2cccc(-c3ccc4nc(-c5cccnc5N)n(-c5ccc(C6(N)CCC6)cc5)c4n3)c2)C(C)(C)C)cc1` [Compound 63, (2R,4S)-1-((S)-2-(11-(3-(3-(3-(4-(1-Aminocyclobutyl)phenyl)-2-(2-aminopyridin-3-yl)-3H-imidazo[4,5-b]pyridin-5-yl)phenyl)propanamido)undecanamido)-3,3-dimethylbutanoyl)-4-hydroxy-N-((S)-1-(4-(4-methylthiazol-5-yl)phenyl)ethyl)pyrrolidine-2-carboxamide]: the “T-AKT level (western blot verification for proteomics, in words)” value with AKT [3] (1 μM, 18 h, Figure S4) was “no effect”. In addition, the “effect on AKT protein levels at high concentrations (in words)” value with AKT [3] (concentrations up to 10 μM, 24 h) is given as “no effect”. The “P-PRAS40 inhibition (western blot verification for proteomics, in words)” value with P-PRAS40 (18 h, Figure S4) is “no effect”.
Regarding `Cc1ncsc1-c1ccc(CNC(=O)[C@@H]2C[C@@H](O)CN2C(=O)[C@@H](NC(=O)CCCCCCCCCC(=O)N2CCN(CC[C@H](NC(=O)C3(N)CCN(c4ncnc5[nH]ccc45)CC3)c3ccc(Cl)cc3)CC2)C(C)(C)C)cc1` [MS21, reference compound], the “T-AKT degradation (in words)” value is reported as “largely ineffective” in the assay with AKT [3] (indicated concentrations, 24 h, Figure 7E) and “unable to reduce the AKT protein level” with AKT [4]. For the same compound, the “inhibition of colony formation (in words)” value in the assay with SW620 cells was “no effect”.
